Results as given in PubChem BioAssay (NCI).
“And” between values parts separate entries of the source, which are not always exact repeats. Equal entries are not always repeated.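 Briefly, cells in 96-well plates were exposed to five compound concentrations for 48 h, and endpoints were estimated by linear interpolation. At the GI50, growth is halved. TGI denotes the concentration required for complete inhibition of growth.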

Columns and labels:
Assay in all cases: inhibition of tumour cell growth, NCI panel, 48 h
U251 CNS = tested on: U251 CNS
OVCAR-3 ovarian = tested on: OVCAR-3 ovarian
M14 melanoma = tested on: M14 melanoma
SK-MEL-5 melanoma = tested on: SK-MEL-5 melanoma
NCI-H23 lung = tested on: NCI-H23 lung
MCF7 breast = tested on: MCF7 breast
UACC-257 melanoma = tested on: UACC-257 melanoma
BT-549 breast = tested on: BT-549 breast
NCI-H522 lung = tested on: NCI-H522 lung
A498 renal = tested on: A498 renal

Row | SMILES | GI50 (U251 CNS) [µM] | TGI (U251 CNS) | GI50 (OVCAR-3 ovarian) [µM] | TGI (OVCAR-3 ovarian) | GI50 (M14 melanoma) [µM] | TGI (M14 melanoma) [µM] | GI50 (SK-MEL-5 melanoma) [µM] | TGI (SK-MEL-5 melanoma) | GI50 (NCI-H23 lung) [µM] | TGI (NCI-H23 lung) [µM] | GI50 (MCF7 breast) [µM] | TGI (MCF7 breast) | GI50 (UACC-257 melanoma) [µM] | TGI (UACC-257 melanoma) | GI50 (BT-549 breast) [µM] | TGI (BT-549 breast) | GI50 (NCI-H522 lung) [µM] | TGI (NCI-H522 lung) | GI50 (A498 renal) [µM] | TGI (A498 renal) [µM]
1 | COc1ccc(-c2nc3sccn3c2-c2ccnc(NCCCNS(=O)(=O)c3ccc(F)cc3)n2)cc1 | 3.7 | > 100 µM | 2.96 | 48.7 µM | 2.54 | 10.2 | 1.06 | 2.28 µM | 2.11 | 5.5 | 2.48 | 8.66 µM | 2.85 | > 100 µM | 2.19 | 8.27 µM | 1.41 | 6.34 µM | 2.6 | > 100
2 | COc1ccc(/C=C2/CN(CCC#N)C/C(=C\c3ccc(OC)cc3)C2=O)cc1 | 2.1 | 5.1 µM | 2.79 | 7.46 µM | 3.01 | 9.6 | 1.39 | 2.74 µM | 3.34 | 19.8 | 1.72 | > 100 µM | 2.63 | 7.44 µM | 2.1 | 4.73 µM | 1.83 | 4.32 µM | 5.03 | 21.5
3 | OCc1ccc(N(Cc2ccc(F)cc2)CC2CCC2)cc1Cl | 5.43 | 19.6 µM | 5.28 | 17.5 µM | 15.2 | 31.2 | 13.3 | 26.2 µM | 10.7 | 24.7 | 3.25 | 16.3 µM | 1.53 | 7.78 µM | 17.5 | 32.3 µM | 12.7 | 27.1 µM | 0.092 | 0.34
4 | COc1cc(-c2nn(-c3cccc(NC(=O)CCN4CCN(C)CC4)c3)cc2-c2ccncc2)ccc1Cl | 1.29 | 3.4 µM | 0.363 | 1.75 µM | 1.09 | 2.71 | 0.529 | 1.86 µM | 2.38 | 10.4 | 0.35 | 1.92 µM | 1.44 | 3.07 µM | 7.26 | 20.4 µM | 0.283 | 1.08 µM | 0.412 | 3.23
5 | Cc1cc2c(cc1Cl)SC(C(=O)c1ccc(Cl)c(Cl)c1)NS2(=O)=O (stereo not drawn) | 34.4 | > 100 µM | 40.7 | > 100 µM | 43.9 | > 100 | 42.3 | > 100 µM | 34.1 | 89.5 | 21.2 | 47.3 µM | 67.2 | > 100 µM | 29.8 | 56.5 µM | 28.9 | 74.4 µM | 70.5 | > 100
6 | COc1cc(Cn2c(SCC(=O)Nc3ccc(Cl)cc3)nc3ccccc3c2=O)cc(OC)c1OC | 3.14 | 11.1 µM | 7.86 | 31 µM | 16.5 | 86.4 | 6.38 | 21.2 µM | 16.5 | 72.6 | 8.97 | 55.1 µM | 6.04 | 28 µM | 6.42 | 23.8 µM | 4.89 | 21.9 µM | 2.42 | 12.2
7 | COc1c2ccccc2c(O)c2c(=O)ccn(C)c12 | 2.67 | 13.4 µM | 1.86 | 11 µM | 2.3 | 5.81 | 3.77 | 14.4 µM | 1.73 | 4.08 | 3.31 | 11.3 µM | 3.45 | 12.6 µM | 14.7 | 84.2 µM | 23.9 | > 100 µM | 10.7 | 41.6
8 | CC[C@@]1(O)C(=O)NCc2c1cc1n(c2=O)Cc2cc3c(NC(C)=O)cccc3nc2-1 | > 100 | > 100 µM | > 100 | > 100 µM | > 100 | > 100 | > 100 | > 100 µM | > 100 | > 100 | > 100 | > 100 µM | > 100 | > 100 µM | > 100 | > 100 µM | > 100 | > 100 µM | > 100 | > 100
9 | CCN(CCO)CCCOc1ccc2c(Nc3cc(CC(=O)Nc4cccc(F)c4)[nH]n3)ncnc2c1 | 13.7 | 29.4 µM and > 10 µM | 10.9 | 42.9 µM and > 4.07 µM | 20.9 | > 56.2 | 19.8 | 48.5 µM and > 3.51 µM | 17.4 | > 53.1 | – | 22.5 µM and > 4.11 µM | 12.4 | 29.2 µM and > 2.56 µM | 13 | 29.7 µM and > 3.6 µM | – | 37.2 µM and > 4.22 µM | > 49.1 | > 100
10 | CN1CCN(c2ccc(Nc3ncc4cc5n(c4n3)C3(CCCCC3)CNC5=O)nc2)CC1 | 1.32 | 28.2 µM | 3.16 | 13.1 µM | 1.76 | 11.7 | 3.2 | 15.6 µM | 2.19 | 15.7 | 0.109 | 14.6 µM | 5.67 | 39.2 µM | 3.35 | 8.97 µM | 9.01 | 31.5 µM | 0.17 | 1.8
11 | C[C@H](c1ccccc1)N(CCC(=O)O)C(=O)CCN(C(=O)CCN(C(=O)CCN[C@H](C)c1ccccc1)[C@H](C)c1ccccc1)[C@H](C)c1ccccc1 | > 100 | > 100 µM | > 100 | > 100 µM | > 100 | > 100 | > 100 | > 100 µM | > 100 | > 100 | > 100 | > 100 µM | > 100 | > 100 µM | > 100 | > 100 µM | > 100 | > 100 µM | > 100 | > 100
12 | O=c1[nH]c(SCc2ccccc2[N+](=O)[O-])nc2nc[nH]c12 | – | > 100 µM | – | > 100 µM | – | > 100 | – | > 100 µM | – | > 100 | – | > 100 µM | – | > 100 µM | – | > 100 µM | – | > 100 µM | – | > 100
13 | CC(C)COC(c1ccc2c(c1)OCO2)C(C)Br (stereo not drawn) | – | 93.8 µM | – | 34.8 µM | – | 50.9 | – | 36.4 µM | – | 72.9 | – | 86.9 µM | – | 55.5 µM | – | > 100 µM | – | 37.8 µM | – | > 100
14 | COc1cc(NC(C)CCCN2C(=O)c3ccccc3C2=O)c2ncccc2c1OC (stereo not drawn) | 46.8 | > 100 µM | 25.8 | > 100 µM | 30.5 | > 100 | 16.5 | 30.1 µM | 26.3 | > 100 | 10.9 | > 100 µM | 40.6 | > 100 µM | 23.4 | 83.7 µM | 35.4 | > 100 µM | 34.4 | > 100
15 | COc1cccc(/C=C\c2ccnc3ccccc23)c1 | – | > 10 µM | – | > 10 µM | – | > 10 | – | > 10 µM | – | > 10 | – | > 10 µM | – | > 10 µM | – | > 10 µM | – | > 10 µM | – | > 10
16 | COC1=CC2CCN3Cc4cc5c(cc4C(C1O)C23)OCC5 (stereo not drawn) | 1.53 | 11.4 µM | 1.78 | 5.62 µM | 3 | 19.3 | 2.18 | 8.89 µM | 2.17 | 8.28 | 3.36 | > 100 µM | 2.09 | 34.6 µM | 3.94 | > 47 µM | 28 | > 100 µM | 17.7 | 98.8
17 | Cn1cc(C2=C(c3c(S(C)=O)n(C)c4ccccc34)C(=O)NC2=O)c2ccccc21 (stereo not drawn) | 8.64 | > 25 µM | 6.31 | 17.5 µM | 7.56 | > 25 | 6.96 | > 25 µM | 9.79 | > 25 | 6.33 | > 25 µM | > 25 | > 25 µM | 4.88 | > 25 µM | 4.47 | > 23.4 µM | 4.03 | > 20.5
18 | Nc1ccc(C(=O)Nc2ccccc2N)cc1 | – | 59.8 µM | – | > 100 µM | – | > 100 | – | 43.4 µM | – | > 100 | – | > 100 µM | – | > 72.5 µM | – | > 100 µM | – | 47.2 µM | – | > 100
19 | Fc1ccc(-c2nn3c(COc4ccc(Cl)cc4Cl)nnc3s2)cc1Oc1ccccc1 | 12.9 | 25.6 µM | 0.705 | 13.3 µM | 23 | 67.2 | 23 | 71.2 µM | 13.6 | 26.4 | 67.1 | > 100 µM | 55.4 | > 100 µM | 19.3 | 43.8 µM | 27 | > 100 µM | 20.2 | 40.6
20 | O=C(c1ccco1)c1c(C(F)(F)F)n([O-])c2ccc(F)cc2[n+]1=O | 1.33 | 2.6 µM | 0.757 | 2.24 µM | 1.48 | 2.93 | 1.84 | 5.88 µM | 1.02 | 2.49 | 0.258 | 1.89 µM | 1.47 | 2.81 µM | 0.996 | 2.98 µM | 1.7 | 3.44 µM | 8.53 | 24.3
